Legend:
HSV-2 (333 strain) = assay: Murine model of vaginal HSV-2 infection; type: in vivo, BALB/c mice
Experimental: Naïve 4-week-old female BALB/c mice were purchased from Jackson Laboratory (Bar Harbor, USA) and housed in the university BRL for a period of one week for acclimatization before they were subcutaneously injected with 2 mg of medroxyprogesterone (Depo-Provera) per mice. On day 5 post injection, mice were intravaginally infected with 1×10^6 PFU HSV-2 (333 strain). Similar to the ocular model of infection, DECON was applied topically (intravaginally) on alternate days while ACV (50 mg/mL in PBS) was administered via an intraperitoneal injection. PBS was applied intravaginally as mock treatment for the control group. Vaginal swabs were collected using a Calgiswab (Calcium Alginate Mini-tip Urethro-Genital Swab, Puritan) dipped in OptiMEM (Gibco, USA). Images of the ano-genital region were taken on day 0 and day 7 post infection using a Carl Zeiss stereoscope at 7.5× magnification.
Experiments involving animals were performed under a UIC approved protocol ACC 14-091. The mice were monitored for weight loss and disease scores were recorded in a blinded fashion for 14 days. Sick mice were euthanized according to the IUCAC protocol followed by the collection of ocular/vaginal tissue and lymph nodes. Ocular wash and vaginal swabs were used to assess viral titers using a plaque assay.
With the success of topical ocular therapy with DECON, it was investigated whether this delivery platform was effective for vaginal HSV-2 infections as well. Naïve Balb/c mice were primed with medroxyprogestrone 5 days prior to intravaginal HSV-2 infection. Starting at day 1 post infection, mice were either treated with topical DECON or systemic ACV (5 mg/kg) by intraperitoneal injections […], DECON was administered intravaginally […]. The genital area was imaged using a stereoscope on days 0 and 7 to visualize the extent of damage done to the site of infection. […] This was observed by the phenotype of infection and analyzed by plaque assays from vaginal swabs. […] In the mock treated group, 60% of mice succumbed to death by day 14 post infection, while 20% of mice treated with systemic ACV and none of DECON treated mice succumbed to death (FIG. 5D).

HSV-1 = assay: Prophylactic and therapeutic DECON treatment of HCEs with HSV-1 infection in vitro; type: cell-based; conditions: prophylactically added
Experimental: Cell monolayer was washed twice with PBS before whole media with required HSV infection was added.
To comprehensively test the efficacy of drug release and resulting antiviral activity of DECON particles, a prophylactic and therapeutic model of treatment was used on HCEs followed by HSV-1 infection in vitro.
Flow cytometry was conducted on the samples at 24 hpi showing the extent of cells infected with HSV-1 GFP (see FIG. 8C). FIG. 8d provides representative immunoblots for samples showing HSV-1 gB protein in comparison with GAPDH for HSV-1 infected HCEs at 24 hpi.

HSV-1 (McKrae) = type: in vivo

Row | Compound | mice succumbed to death (HSV-2 (333 strain); by day 14 post infection) [%] | inflammation of vaginal and anogenital area (HSV-2 (333 strain); compared to mock-treated mice) | viral titers, plaque assays from vaginal swabs (HSV-2 (333 strain); day 4 and day 7 post infection, DECON intravaginal, ACV 5 mg/kg intraperitoneal) | lymph node size (HSV-2 (333 strain); day 14 post infection) | antiviral response (HSV-1) | mice succumbed to death (HSV-1 (McKrae); by day 15, topical treatment on alternate days) | viral replication / infection vs mock treated (HSV-1 (McKrae); topical, alternate days, ocular washes)
1 | Nc1nc2c(ncn2COCCO)c(=O)[nH]1 [ACV, Acyclovir] | 20 | only slight inflammation | steady reduction in viral titers | little to no increase in size | did not elicit a robust antiviral response |  | 
2 | O=c1[nH]c(=O)n([C@H]2C[C@H](O)[C@@H](CO)O2)cc1C(F)(F)F [TFT, trifluridine] |  |  |  |  |  | Up to 20% | did not show any significant reduction in viral replication
